# Measurements from PubChem BioAssay AID2310 (SRMLSC, 2010).
# Tested on: virus CPE inhibition assay, host cell viability
# Test: dose response, CPE inhibition, cell viability (AID 2310)
# [1] = measured here: HTS CPE inhibition EC50
# [2] = measured here: HTS cell viability IC50
# [3] = measured here: cytotoxicity, cell viability IC50
SMILES,EC50 [µM],EC50 [1] [µM],CC50 [2] [µM],CC50 [3] [µM]
O=C1NC2=C(CCc3ccccc32)C(c2ccc3c(c2)OCO3)N1 (stereo unspecified),0.39,> 20,17.5,29.6
O=C(Nc1c(-c2ccccc2)nc2sccn12)c1ccccc1,0.634,0.634,> 60,> 60
COc1ccc(-c2nc(=O)[nH]c3c2CCc2ccccc2-3)cc1,0.96,1.1,> 20,> 50
Cc1cccc(C2NC(=O)NC3=C2CCc2ccccc23)c1 (stereo unspecified),0.7,0.908,> 20,> 50
